Consider 44 molecules from ChEMBL document CHEMBL3877258, “Targeting cytochrome P450 (CYP) 1B1 with steroid derivatives” (Bioorg Med Chem Lett, 2016).

Each structure is given as a SMILES string.

For the first data set, the target named is T1, CYP1B1 (Homo sapiens, UniProt Q16678).
T1 sequence (Q16678 whole entry): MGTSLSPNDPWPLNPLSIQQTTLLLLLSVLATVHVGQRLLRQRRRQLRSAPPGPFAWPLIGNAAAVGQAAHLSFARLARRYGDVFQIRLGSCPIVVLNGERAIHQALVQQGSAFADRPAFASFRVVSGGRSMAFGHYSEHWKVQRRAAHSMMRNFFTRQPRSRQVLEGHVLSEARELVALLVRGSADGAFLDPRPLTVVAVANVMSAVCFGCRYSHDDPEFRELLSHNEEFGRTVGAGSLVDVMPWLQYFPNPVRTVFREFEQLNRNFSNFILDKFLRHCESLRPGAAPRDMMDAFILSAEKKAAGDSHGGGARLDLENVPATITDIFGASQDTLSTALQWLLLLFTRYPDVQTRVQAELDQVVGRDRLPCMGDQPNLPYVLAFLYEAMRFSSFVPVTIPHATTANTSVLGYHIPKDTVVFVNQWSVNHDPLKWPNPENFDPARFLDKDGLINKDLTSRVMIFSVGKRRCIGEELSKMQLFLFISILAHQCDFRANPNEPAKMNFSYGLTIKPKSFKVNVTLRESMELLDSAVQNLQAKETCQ
The data set is described as follows: Inhibition of recombinant human CYP1B1 expressed in bacterial microsomes co-expressing P450 reductase at 3 uM using 7-ethyl-O-resorufin as substrate after 45 mins in presence of NADPH by fluorescence assay relative to control. To be noted: probe 7-ethyl-O-resorufin.
In the case of `COc1ccc2c(c1)CC[C@@H]1[C@@H]2CC[C@]2(C)C(=O)CC[C@@H]12`, the inhibition at 0.75 h, 3 µM is 2%.
The same measure, in the same setting: to `C[C@]12CC[C@@H]3c4cc(F)c(O)cc4CC[C@H]3[C@@H]1CC[C@@H]2O` belongs 28.7%; to `C[C@]12CC[C@@H]3c4ccc(O)c(F)c4CC[C@H]3[C@@H]1CC[C@@H]2O`, 7.5%; to `C[C@]12CC[C@@H]3c4ccc(O)cc4CC[C@H]3[C@@H]1C[C@@H](CCCBr)[C@@H]2O`, 2%.
The same measure, in the same setting: to `C[C@]12CC[C@@H]3c4cc(Br)c(O)c(Br)c4CC[C@H]3[C@@H]1CC[C@@H]2O` belongs 1%; to `C[C@]12CC[C@@H]3c4ccccc4CC[C@H]3[C@@H]1CCC2=O`, 11.3%.
For `C[C@]12CC[C@@H]3c4cc(Br)c(O)cc4CC[C@H]3[C@@H]1CC[C@@H]2O`, the inhibition at 0.75 h, 3 µM turned out to be 22.6%.
Take `C[C@]12CC[C@@H]3c4ccc(OC(N)=O)cc4CC[C@H]3[C@@H]1CCC2=O`: the inhibition at 0.75 h, 3 µM amounted to 9.9%.
On the same count and under the same terms, to `COc1cc2c(cc1OS(N)(=O)=O)CC[C@@H]1[C@@H]2CC[C@]2(C)[C@@H](O)CC[C@@H]12` belongs 23.8%; to `C[C@]12CC[C@@H]3c4ccc(O)c(Br)c4CC[C@H]3[C@@H]1CC[C@@H]2O`, 29%; to `Cc1cc2c(cc1O)CC[C@@H]1[C@@H]2CC[C@]2(C)[C@@H](O)CC[C@@H]12`, 1%.
In the case of `C[C@]12CC[C@@H]3c4ccc(OS(=O)(=O)O)cc4CC[C@H]3[C@@H]1CC[C@@H]2O`, the inhibition at 0.75 h, 3 µM worked out at 0.9%.
Still for that read-out and setting: the same measure for `COc1cc2c(cc1OS(N)(=O)=O)CC[C@@H]1[C@@H]2CC[C@@]2(C)[C@H]1CC[C@@]2(O)Cc1ccccc1`: 7.7%.
Still for that read-out and setting: the same measure for `C#C[C@]1(O)CC[C@H]2[C@@H]3CCc4c(ccc(O)c4Br)[C@H]3CC[C@@]21C`: 7.5%.
Regarding `C[C@]12CC[C@@H]3c4ccc(C5CO5)cc4CC[C@H]3[C@@H]1CCC2=O` (stereo not given in full), the inhibition at 0.75 h, 3 µM turned out to be 12.4%.
Turning to `CCCCCCCN(C=O)[C@H]1CC[C@H]2[C@@H]3CCc4cc(O)ccc4[C@H]3CC[C@]12C`, the inhibition at 0.75 h, 3 µM turned out to be 0%.
Same read-out and setting: the same measure for `C[C@]12CC[C@@H]3c4ccc(O)cc4C(=O)C[C@H]3[C@@H]1CC[C@@H]2O`: 9.7%.
With `C[C@]12CC[C@@H]3c4ccc(OS(N)(=O)=O)cc4CC[C@H]3[C@@H]1CC[C@@]2(O)CN1CCN(C(=O)[C@H](Cc2ccccc2)NC(=O)CCC2CCCC2)CC1`, the inhibition at 0.75 h, 3 µM is 14.9%.
The same measure, in the same setting: to `Cc1ccc(S(=O)(=O)/N=S(\C)c2ccc3c(c2)CC[C@@H]2[C@@H]3CC[C@]3(C)C(=O)CC[C@@H]23)cc1` (stereo not given in full) belongs 0.1%.
Still for that read-out and setting: the same measure for `C[C@]12CC[C@@H]3c4ccc(OS(N)(=O)=O)cc4CC[C@H]3[C@@H]1C[C@H](CCCNC(=O)C(Cc1ccccc1)NC(=O)Cc1ccccc1)[C@@H]2O` (stereo not given in full): 22.8%; for `C[C@]12CC[C@@H]3c4ccc([N+](C)(C)[O-])cc4CC[C@H]3[C@@H]1CCC2=O`: 36.6%; for `C[C@]12CC[C@@H]3c4cc([N+](=O)[O-])c(O)c([N+](=O)[O-])c4CC[C@H]3[C@@H]1CC[C@@H]2O`: 11.4%.
On the same count and under the same terms, the same measure for `C[C@]12CC[C@@H]3c4ccccc4C(=O)C[C@H]3[C@@H]1CCC2=O`: 16%; for `COc1cc2c(cc1O)CC[C@@H]1[C@@H]2CC[C@@]2(C)[C@H]1CC[C@@]2(O)Cc1ccccc1`: 0%; for `C#C[C@]1(O)CC[C@H]2[C@@H]3CCc4cc(O)c(Br)cc4[C@H]3CC[C@@]21C`: 8.4%.
Turning to `C[C@]12CC[C@@H]3c4ccc(OS(N)(=O)=O)cc4CC[C@H]3[C@@H]1C[C@H](CCCNC(=O)C1CCCN1C(=O)Cc1ccccc1)[C@@H]2O` (stereo not given in full), the inhibition at 0.75 h, 3 µM worked out at 21.4%.
On to `C[C@]12CC[C@@H]3c4ccccc4C(O)C[C@H]3[C@@H]1CC[C@@H]2O` (stereo not given in full), for which the inhibition at 0.75 h, 3 µM is 20%.
With `C[C@]12CC[C@@H]3c4ccc(NC(=O)O)cc4CC[C@H]3[C@@H]1CCC2=O`, the inhibition at 0.75 h, 3 µM was found to be 8.9%.
Take `CCCCCCCN(C=O)[C@H]1CC[C@H]2[C@@H]3CCc4cc(OC)ccc4[C@H]3CC[C@]12C`: the inhibition at 0.75 h, 3 µM is 3.5%.
Still for that read-out and setting: the same measure for `C[C@]12CC[C@@H]3c4ccc(O)cc4CC[C@H]3[C@@H]1C[C@H](CCCNC(=O)C(Cc1ccccc1)NC(=O)Cc1ccccc1)[C@@H]2O` (stereo not given in full): 7.7%; for `C[C@]12CC[C@@H]3c4ccc(N)cc4CC[C@H]3[C@@H]1CCC2=O`: 16.2%.
Same read-out and setting: to `C[C@]12CC[C@@H]3c4ccc(C(=O)O)cc4CC[C@H]3[C@@H]1CCC2=O` belongs 11.5%.
On to `C[C@]12CC[C@@H]3c4ccc(OCCBr)cc4CC[C@H]3[C@@H]1CC[C@@H]2O`, for which the inhibition at 0.75 h, 3 µM turned out to be 11.1%.
Same read-out and setting: the same measure for `C[C@]12CC[C@@H]3c4ccc(S)cc4CC[C@H]3[C@@H]1CCC2=O`: 61.1 to 61.6%; for `CCc1ccc2c(c1)CC[C@@H]1[C@@H]2CC[C@]2(C)C(=O)CC[C@@H]12`: 42.8%; for `CC(=O)c1ccc(C(=O)N2CCCC2C(=O)NCCCCCCCCCCC[C@@H]2Cc3cc(O)ccc3[C@H]3CC[C@]4(C)[C@@H](O)CC[C@H]4[C@H]23)cc1` (stereo not given in full): 22.1%.
For the molecule `CNS(=O)(=O)Oc1cc2c(cc1OS(=O)(=O)NC)[C@H]1CC[C@]3(C)C(=O)CC[C@H]3[C@@H]1CC2`, the inhibition at 0.75 h, 3 µM stood at 30.3%.
The same measure, in the same setting: to `CCS(=O)(=O)Oc1ccc2c(c1)CC[C@@H]1[C@@H]2CC[C@]2(C)C(=O)CC[C@@H]12` belongs 0.3%; to `CCCCCCCN[C@H]1CC[C@H]2[C@@H]3CCc4ccc(OC)cc4[C@H]3CC[C@]12C`, 9.4%.
Take `COc1cc2c(cc1O)CC[C@@H]1[C@@H]2CC[C@]2(C)C(=O)CC[C@@H]12`: the inhibition at 0.75 h, 3 µM came to 13.2%.
Same read-out and setting: the same measure for `C[C@]12CC[C@@H]3c4ccc(O)cc4CC[C@H]3[C@@H]1CC[C@@]21CCC(=O)O1`: 13.9%; for `COc1cc2c(cc1O)CC[C@@H]1[C@@H]2CC[C@]2(C)[C@@H](O)CC[C@@H]12` [2-METHOXYESTRADIOL]: 4.4%.
The same measure, in the same setting: the same measure for `O=c1cc(-c2ccccc2)oc2c1ccc1ccccc12` [ALPHA-NAPHTHOFLAVONE]: 89.2%.
Regarding `C[C@]12CC[C@@H]3c4ccc(OS(N)(=O)=O)cc4CC[C@H]3[C@@H]1CCC2=O` [EMATE], the inhibition at 0.75 h, 3 µM worked out at 8.6%.

A further data set concerns the target T2, Cytochrome P450 1B1 (Homo sapiens, UniProt Q16678).
T2 sequence (Q16678 whole entry): T1 sequence (Q16678 whole entry)
The data set is described as follows: Inhibition of recombinant human CYP1B1 expressed in bacterial microsomes co-expressing P450 reductase using 7-ethyl-O-resorufin as substrate after 45 mins in presence of NADPH by fluorescence assay.
Settings: not given
In the case of `C[C@]12CC[C@@H]3c4ccc(S)cc4CC[C@H]3[C@@H]1CCC2=O`, the IC50 was found to be 3.4 µM.

A word on the inhibition: it is the relative decrease from the control value, in per cent. The term IC50 denotes the concentration needed to halve the response being measured.
